The target in one experiment is T1, IRAK1 (Homo sapiens, UniProt P51617).
T1 construct: purchased Reaction Biology (RBC HotSpot)
Kind of experiment: RBC HotSpot Kinase Assay, IRAK1. The class given is biochemical. To be noted: isolated kinase enzyme, 33P-ATP, P81 filter-binding. The gist of the method: (§1)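 Radiometric HotSpot assay of catalytic activity with isolated recombinant kinase, possibly truncated or kinase domain only. Buffer: 20 mM Hepes pH 7.5, 10 mM MgCl2, 1 mM EGTA, 0.01% Brij35, 0.02 mg/ml BSA, 0.1 mM Na3VO4, 2 mM DTT, 1% DMSO, with cofactors specific to each kinase.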

In another experiment the target is T2, IRAK4 (Homo sapiens, UniProt Q9NWZ3).
T2 sequence (Q9NWZ3 1-460): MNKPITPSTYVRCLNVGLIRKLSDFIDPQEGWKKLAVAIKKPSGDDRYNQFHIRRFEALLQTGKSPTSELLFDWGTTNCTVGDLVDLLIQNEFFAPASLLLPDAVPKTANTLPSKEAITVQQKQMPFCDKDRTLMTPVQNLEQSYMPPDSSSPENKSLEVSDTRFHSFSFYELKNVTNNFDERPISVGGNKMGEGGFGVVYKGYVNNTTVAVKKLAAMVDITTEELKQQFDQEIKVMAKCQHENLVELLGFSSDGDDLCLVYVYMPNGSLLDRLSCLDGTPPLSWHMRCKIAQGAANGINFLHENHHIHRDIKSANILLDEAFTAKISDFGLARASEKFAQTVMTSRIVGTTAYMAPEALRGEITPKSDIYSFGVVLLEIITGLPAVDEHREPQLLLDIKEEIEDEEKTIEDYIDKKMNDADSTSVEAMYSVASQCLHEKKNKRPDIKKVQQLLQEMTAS
Kind of experiment: RBC HotSpot Kinase Assay, IRAK4. Type of experiment: biochemical. The arrangement: purchased Reaction Biology (RBC HotSpot). To be noted: isolated kinase enzyme, 33P-ATP, P81 filter-binding. The gist of the method:
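Radiometric filter-binding activity assay with isolated recombinant kinase (construct may be truncated or catalytic domain only) in 20 mM Hepes pH 7.5, 10 mM MgCl2, 1 mM EGTA, 2 mM DTT, 1% DMSO. Compound preincubated 20 min with kinase/substrate; reaction started with 33P-ATP, run 2 h at room temperature.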

The test system of the next experiment is MOLM14 F691L cells. Kind of experiment: MOLM14 F691L cell viability assay (Cell Titer Glo). To be noted: Homo sapiens, MOLM-14; cell viability, Cell Titer Glo, 48 hours; read-out: MOLM14 F691L IC50. Type of experiment: cell-based. Summed up: (§2)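 MOLM14 cells with FLT3 D835Y or F691L kinase-domain resistance mutations seeded at 1000 cells/well and exposed to compound for 48 h under standard incubator conditions. Viability read by CellTiter-Glo luminescence after 15 min at room temperature.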
In general terms: ATP-based viability assays read luminescence as a measure of living cells.

For experiment [1], the system named is MOLM14-D835Y cells (FLT3-ITD (D835Y) mutant). In words: Combination drug screening with venetoclax in MOLM14 (D835Y) cells (Cell Titre Glo, 10 × 10). To be noted: for Excess HSA (sum excess HSA score, combination with venetoclax): 10 × 10 dataset, Cell Titre Glo at 48 hours, optimal of 4 dose combinations, negative = synergy; for Concentration of a compound of the disclosure, or gilteritinib, needed to decrease the 62.5 nM Ven response to <10% in MOLM14(D835Y) cells: combination with 62.5 nM Venetoclax, Cell Titer Glo, 48 hours, response <10%. The arrangement: Excess HSA (sum excess HSA score, combination with venetoclax): scale not given here. Type of experiment: cell-based. The procedure: (§3) These assays were performed using the Cell Titre Glo assay, measured at 48 hours.
(§4) A smaller concentration indicates higher potency to synergize with Venetoclax.

In a further experiment the test system is MOLM14 D835Y cells. Kind of experiment: MOLM14 D835Y cell viability assay (Cell Titer Glo). To be noted: Homo sapiens, MOLM-14, 48 h, cell viability, Cell Titer Glo, 48 hours; read-out: MOLM14 D835Y IC50. The class given is cell-based. The gist of the method: as §2
For a further experiment, the system named is THP1 cells (FLT3 WT). Kind of experiment: Combination drug screening with venetoclax in THP1 cells (Cell Titre Glo, 10 × 10). The class given is cell-based. To be noted: for Excess HSA (sum excess HSA score, combination with venetoclax): 10 × 10 dataset, Cell Titre Glo at 48 hours, optimal of 4 dose combinations, negative = synergy; for Concentration needed to decrease the 312.5 nM Venetoclax response to <20%: Cell Titer Glo at 48 hours. The procedure:
as §3, §4

A further experiment addresses T3, FLT3 (Homo sapiens, UniProt P36888).
T3 sequence (P36888 27-993): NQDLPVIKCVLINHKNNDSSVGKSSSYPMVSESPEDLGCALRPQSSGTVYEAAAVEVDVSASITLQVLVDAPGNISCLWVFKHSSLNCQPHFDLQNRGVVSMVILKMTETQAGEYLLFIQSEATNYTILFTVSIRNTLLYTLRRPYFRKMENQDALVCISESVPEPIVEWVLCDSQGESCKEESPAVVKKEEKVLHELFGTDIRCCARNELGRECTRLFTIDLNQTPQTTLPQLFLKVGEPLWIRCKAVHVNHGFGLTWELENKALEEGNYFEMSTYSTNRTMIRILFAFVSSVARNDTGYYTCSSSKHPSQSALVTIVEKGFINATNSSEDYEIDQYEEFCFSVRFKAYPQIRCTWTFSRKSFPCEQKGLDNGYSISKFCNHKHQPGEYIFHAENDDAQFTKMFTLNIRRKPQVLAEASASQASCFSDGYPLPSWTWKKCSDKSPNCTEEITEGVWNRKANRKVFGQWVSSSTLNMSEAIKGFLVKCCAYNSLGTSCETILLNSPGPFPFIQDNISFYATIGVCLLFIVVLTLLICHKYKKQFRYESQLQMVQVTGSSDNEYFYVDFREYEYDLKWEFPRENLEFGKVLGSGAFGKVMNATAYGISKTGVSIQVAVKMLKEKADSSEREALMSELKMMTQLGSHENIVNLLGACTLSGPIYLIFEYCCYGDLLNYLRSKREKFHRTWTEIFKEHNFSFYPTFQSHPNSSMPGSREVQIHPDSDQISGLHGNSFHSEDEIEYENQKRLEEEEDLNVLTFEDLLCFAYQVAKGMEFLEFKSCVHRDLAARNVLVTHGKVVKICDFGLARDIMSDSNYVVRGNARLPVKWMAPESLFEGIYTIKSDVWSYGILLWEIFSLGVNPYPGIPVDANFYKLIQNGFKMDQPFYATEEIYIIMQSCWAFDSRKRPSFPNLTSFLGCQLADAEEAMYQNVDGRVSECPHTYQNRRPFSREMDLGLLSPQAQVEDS
In words: RBC HotSpot Kinase Assay, FLT3. To be noted: isolated kinase enzyme, 33P-ATP, P81 filter-binding. Also noted: purchased Reaction Biology (RBC HotSpot). The class given is biochemical. The gist of the method:
as §1

The subject of experiment [2] is NF-κB-inducible SEAP reporter in THP-1-Blue NF-κB cells. Kind of experiment: NF-kB SEAP reporter assay in THP-1-Blue NF-κB cells. Type of experiment: cell-based. To be noted: 24 hours. The gist of the method: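 Cells (1×10^5/well) stimulated with Pam3CSK4 (1 ng/mL) or hIL1B (1 ng/mL), then after 10-20 min given 10-point 1:10 compound dilutions from 1 μM or 3 μM for 24 h at 37° C. Secreted SEAP in supernatant read with QUANTI-Blue (30-60 min, 37° C) at 620 nm.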
(In general: Reporter assays use an easily measured gene product as a stand-in for the process of interest.)

One may read the IC50 as the concentration needed to halve the response being measured.

Read-outs that look alike come from different tables or passages of the source.

T1 sequence (P51617 whole entry): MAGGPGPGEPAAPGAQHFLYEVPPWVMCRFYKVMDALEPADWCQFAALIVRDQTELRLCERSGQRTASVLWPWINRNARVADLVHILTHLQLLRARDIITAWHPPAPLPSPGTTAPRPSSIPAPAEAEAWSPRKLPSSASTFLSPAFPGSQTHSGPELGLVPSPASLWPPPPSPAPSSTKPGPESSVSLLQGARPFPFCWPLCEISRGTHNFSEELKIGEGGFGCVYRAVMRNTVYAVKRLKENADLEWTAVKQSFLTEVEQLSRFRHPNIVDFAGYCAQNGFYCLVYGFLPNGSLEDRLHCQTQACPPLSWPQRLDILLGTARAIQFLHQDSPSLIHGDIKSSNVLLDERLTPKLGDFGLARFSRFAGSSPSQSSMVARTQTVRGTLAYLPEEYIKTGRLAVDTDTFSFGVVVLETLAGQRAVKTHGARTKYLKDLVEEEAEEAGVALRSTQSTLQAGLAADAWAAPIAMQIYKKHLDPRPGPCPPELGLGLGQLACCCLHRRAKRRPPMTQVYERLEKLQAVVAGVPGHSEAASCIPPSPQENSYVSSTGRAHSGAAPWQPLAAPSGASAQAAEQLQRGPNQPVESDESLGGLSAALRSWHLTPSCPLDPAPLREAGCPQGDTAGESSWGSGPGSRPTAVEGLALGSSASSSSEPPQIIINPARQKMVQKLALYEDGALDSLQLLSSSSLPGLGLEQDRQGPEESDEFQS

With `COc1cc2ncc(-c3nc(N[C@H]4CNCC[C@@H]4F)ncc3F)n2nc1C1CCC1` [Compound 54a, 4-(6-cyclobutyl-7-methoxyimidazo[1,2-b]pyridazin-3-yl)-5-fluoro-N-((3S,4S)-4-fluoropiperidin-3-yl)pyrimidin-2-amine], the IC50 on IRAK1 was under 0.5 nM; at IRAK4, under 0.5 nM; in the experiment with MOLM14 F691L cells, 7 nM; in the experiment with MOLM14 D835Y cells it was 1 nM; at FLT3, under 0.5 nM. Besides, the “Excess HSA (sum excess HSA score, combination with venetoclax)” value (“Excess HSA” below) in experiment [1] was −1490; in the experiment on THP1 cells (FLT3 WT), −807.2. The “Concentration of a compound of the disclosure, or gilteritinib, needed to decrease the 62.5 nM Ven response to <10% in MOLM14(D835Y) cells” value in experiment [1] worked out at 1.6 nM. Moreover, in the experiment on THP1 cells (FLT3 WT), the “Concentration needed to decrease the 312.5 nM Venetoclax response to <20%” value came to 5 µM.

On to `COc1cc2ncc(-c3nc(N[C@H]4CNCC[C@@H]4F)ncc3F)n2nc1C1CC(C)(C)C1` [Compound 57a, 4-(6-(3,3-dimethylcyclobutyl)-7-methoxyimidazo[1,2-b]pyridazin-3-yl)-5-fluoro-N-((3S,4S)-4-fluoropiperidin-3-yl)pyrimidin-2-amine], for which the IC50 was 2 nM at IRAK1; 1 nM at IRAK4; 90 nM in the experiment with MOLM14 F691L cells; 11 nM in the experiment with MOLM14 D835Y cells; 157 nM in experiment [2] (THP-1-Blue NF-κB cells stimulated with Pam3CSK4 (1 ng/mL), read-out: NF-κB Pam3SCK4 IC50); 167 nM in experiment [2] (THP-1-Blue NF-κB cells stimulated with hIL1B (1 ng/mL), read-out: NF-κB IL1B IC50). Besides, the results for the “Excess HSA” value (in experiment [1]; with THP1 cells (FLT3 WT)) were −1762 and −1308.2250, respectively.

`COc1cc2ncc(-c3ccnc(N[C@H]4CNCC[C@@H]4F)n3)n2nc1C1CC2(CCC2)C1` [Compound 74a, N-((3S,4S)-4-fluoropiperidin-3-yl)-4-(7-methoxy-6-(spiro[3.3]heptan-2-yl)imidazo[1,2-b]pyridazin-3-yl)pyrimidin-2-amine]: the IC50 at IRAK1 is 91 nM; on IRAK4, 26 nM; in the experiment on MOLM14 F691L cells, 1000 nM; in the experiment with MOLM14 D835Y cells, 80 nM; on FLT3 it was under 0.5 nM. Besides, the “Excess HSA” value in experiment [1] is recorded as −1335; in the experiment on THP1 cells (FLT3 WT) it was −456.1. In experiment [1], the “Concentration of a compound of the disclosure, or gilteritinib, needed to decrease the 62.5 nM Ven response to <10% in MOLM14(D835Y) cells” value was 312 nM. In addition, in the experiment on THP1 cells (FLT3 WT), the “Concentration needed to decrease the 312.5 nM Venetoclax response to <20%” value came out at 5 µM.

With `COc1cc2ncc(-c3ccnc(N[C@H]4CNCC[C@@H]4F)n3)n2nc1C1CC(C)(C)C1` [Compound 82a, 4-(6-(3,3-dimethylcyclobutyl)-7-methoxyimidazo[1,2-b]pyridazin-3-yl)-N-((3S,4S)-4-fluoropiperidin-3-yl)pyrimidin-2-amine], the half-maximal inhibitory concentration (IC50) is 174 nM on IRAK1; 45 nM at IRAK4; 1130 nM with MOLM14 F691L cells; 127 nM in the experiment with MOLM14 D835Y cells; under 0.5 nM on FLT3. The “Excess HSA” value is reported as −1679 in experiment [1] and −1292.2960 in the experiment on THP1 cells (FLT3 WT). For the same compound, the “Concentration of a compound of the disclosure, or gilteritinib, needed to decrease the 62.5 nM Ven response to <10% in MOLM14(D835Y) cells” value in experiment [1] was found to be 39 nM. Further, in the experiment with THP1 cells (FLT3 WT), the “Concentration needed to decrease the 312.5 nM Venetoclax response to <20%” value was 5 µM.

The record behind these values is patent US20260226048A1, “MULTI-CYCLIC IRAK AND FLT3 INHIBITING COMPOUNDS AND USES THEREOF” (CHILDREN'S HOSPITAL MEDICAL CENTER, priority 2023, published 2026).
